Assay results: patent US11174268B2, “Benzenesulfonamide compouds and their use as therapeutic agents” (Xenon Pharmaceuticals Inc., priority 2016, dated 2021)
Structures can show the parent of a compound that is named as a salt.

Legend:
NaV1.6 [1] = biological target: T1, NaV1.6 (Homo sapiens (Human), UniProt Q9UQD0); assay: Sodium Influx Assay (Flux), NaV1.6; format: cell-based; details: Trex HEK293 cells, ANG2 dye, inactivated state;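 also: Tetracycline-induced cells, compounds applied for one hour at room temperature with modulators holding channels open, IC50 from percent inhibition of sodium influx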
T1 sequence (Q9UQD0 whole entry): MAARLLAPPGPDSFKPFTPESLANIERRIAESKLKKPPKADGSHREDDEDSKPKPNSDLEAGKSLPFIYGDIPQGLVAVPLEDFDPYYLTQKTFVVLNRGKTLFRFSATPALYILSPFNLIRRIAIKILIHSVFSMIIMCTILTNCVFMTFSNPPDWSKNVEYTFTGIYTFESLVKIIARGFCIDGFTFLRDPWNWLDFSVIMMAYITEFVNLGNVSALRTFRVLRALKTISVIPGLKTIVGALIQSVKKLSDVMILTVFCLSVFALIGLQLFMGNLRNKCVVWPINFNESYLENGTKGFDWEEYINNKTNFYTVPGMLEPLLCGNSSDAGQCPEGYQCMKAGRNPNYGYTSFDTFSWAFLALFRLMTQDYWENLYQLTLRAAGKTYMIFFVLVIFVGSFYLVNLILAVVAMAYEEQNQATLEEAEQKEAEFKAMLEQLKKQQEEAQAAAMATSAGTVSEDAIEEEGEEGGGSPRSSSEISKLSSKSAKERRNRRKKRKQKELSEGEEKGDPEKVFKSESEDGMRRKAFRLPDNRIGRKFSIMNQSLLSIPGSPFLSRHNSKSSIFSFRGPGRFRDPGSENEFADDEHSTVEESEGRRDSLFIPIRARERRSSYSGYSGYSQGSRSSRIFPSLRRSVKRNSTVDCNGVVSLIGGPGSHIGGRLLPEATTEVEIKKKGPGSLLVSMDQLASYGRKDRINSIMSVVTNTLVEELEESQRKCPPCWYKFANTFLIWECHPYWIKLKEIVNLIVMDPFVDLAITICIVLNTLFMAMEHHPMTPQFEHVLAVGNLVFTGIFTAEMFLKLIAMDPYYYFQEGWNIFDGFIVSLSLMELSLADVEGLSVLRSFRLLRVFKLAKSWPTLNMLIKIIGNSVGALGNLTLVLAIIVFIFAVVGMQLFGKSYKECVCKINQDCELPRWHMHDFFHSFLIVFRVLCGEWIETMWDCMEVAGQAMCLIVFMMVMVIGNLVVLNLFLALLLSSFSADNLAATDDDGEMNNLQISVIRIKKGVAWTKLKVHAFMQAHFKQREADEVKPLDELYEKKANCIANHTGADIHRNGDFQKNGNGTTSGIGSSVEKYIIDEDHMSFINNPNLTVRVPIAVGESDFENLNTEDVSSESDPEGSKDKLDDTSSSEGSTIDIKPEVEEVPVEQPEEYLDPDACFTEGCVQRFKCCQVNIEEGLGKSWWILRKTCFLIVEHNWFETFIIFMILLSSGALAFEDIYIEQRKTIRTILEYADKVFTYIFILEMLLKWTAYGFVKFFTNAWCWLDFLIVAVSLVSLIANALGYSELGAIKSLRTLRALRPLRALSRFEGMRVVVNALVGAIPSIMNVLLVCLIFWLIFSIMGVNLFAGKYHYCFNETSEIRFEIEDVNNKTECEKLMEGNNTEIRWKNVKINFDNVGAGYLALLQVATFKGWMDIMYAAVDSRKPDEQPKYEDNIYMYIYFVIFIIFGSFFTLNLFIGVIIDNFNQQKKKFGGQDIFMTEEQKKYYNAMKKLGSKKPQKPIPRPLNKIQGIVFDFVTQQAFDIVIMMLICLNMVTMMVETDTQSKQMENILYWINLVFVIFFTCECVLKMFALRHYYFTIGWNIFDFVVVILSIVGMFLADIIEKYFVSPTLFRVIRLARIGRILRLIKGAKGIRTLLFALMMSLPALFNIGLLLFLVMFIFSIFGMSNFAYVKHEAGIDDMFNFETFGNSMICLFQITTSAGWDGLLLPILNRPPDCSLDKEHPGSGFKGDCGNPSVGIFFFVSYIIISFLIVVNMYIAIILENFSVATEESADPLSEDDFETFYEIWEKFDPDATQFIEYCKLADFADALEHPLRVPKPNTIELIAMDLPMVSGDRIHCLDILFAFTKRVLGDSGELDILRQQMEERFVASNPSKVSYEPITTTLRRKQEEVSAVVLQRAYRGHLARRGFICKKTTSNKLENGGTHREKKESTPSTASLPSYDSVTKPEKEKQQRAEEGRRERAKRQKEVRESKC

NaV1.6 [2] = biological target: T1, NaV1.6; assay: Electrophysiological Assay (EP), patch voltage clamp, NaV1.6; format: cell-based; details: HEK-293 cells, whole-cell patch clamp;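 also: sodium current recorded at ambient temperature, channels held inactivated then briefly repolarized to −150 mV for 20 ms before a test pulse, control currents in 0.5% DMSO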
NaV1.1 [3] = biological target: T2, NaV1.1 (Homo sapiens (Human), UniProt P35498); assay: Sodium Influx Assay (Flux), NaV1.1; format: cell-based; details: Trex HEK293 cells, ANG2 dye, inactivated state;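 also: channels co-expressed with human β1 subunit and held open by modulators, cells exposed to compounds for one hour at room temperature, IC50 from percent inhibition of influx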
NaV1.1 [4] = biological target: T2, NaV1.1; assay: Electrophysiological Assay (EP), patch voltage clamp, NaV1.1; format: cell-based; details: HEK-293 cells, whole-cell patch clamp;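 also: sodium current block measured at ambient temperature, holding at fully inactivating potential, 20 ms repolarization to −150 mV before test pulse, versus 0.5% DMSO control currents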
NaV1.5 = NaV1.5 (Homo sapiens (Human), UniProt Q14524); assay: Sodium Influx Assay (Flux), NaV1.5; details: read-out: Flux NaV1.5 IC50; Trex HEK293 cells, ANG2 dye, inactivated state
NaV1.5, sequence (Q14524 other isoform, or with tags, fused parts or gaps): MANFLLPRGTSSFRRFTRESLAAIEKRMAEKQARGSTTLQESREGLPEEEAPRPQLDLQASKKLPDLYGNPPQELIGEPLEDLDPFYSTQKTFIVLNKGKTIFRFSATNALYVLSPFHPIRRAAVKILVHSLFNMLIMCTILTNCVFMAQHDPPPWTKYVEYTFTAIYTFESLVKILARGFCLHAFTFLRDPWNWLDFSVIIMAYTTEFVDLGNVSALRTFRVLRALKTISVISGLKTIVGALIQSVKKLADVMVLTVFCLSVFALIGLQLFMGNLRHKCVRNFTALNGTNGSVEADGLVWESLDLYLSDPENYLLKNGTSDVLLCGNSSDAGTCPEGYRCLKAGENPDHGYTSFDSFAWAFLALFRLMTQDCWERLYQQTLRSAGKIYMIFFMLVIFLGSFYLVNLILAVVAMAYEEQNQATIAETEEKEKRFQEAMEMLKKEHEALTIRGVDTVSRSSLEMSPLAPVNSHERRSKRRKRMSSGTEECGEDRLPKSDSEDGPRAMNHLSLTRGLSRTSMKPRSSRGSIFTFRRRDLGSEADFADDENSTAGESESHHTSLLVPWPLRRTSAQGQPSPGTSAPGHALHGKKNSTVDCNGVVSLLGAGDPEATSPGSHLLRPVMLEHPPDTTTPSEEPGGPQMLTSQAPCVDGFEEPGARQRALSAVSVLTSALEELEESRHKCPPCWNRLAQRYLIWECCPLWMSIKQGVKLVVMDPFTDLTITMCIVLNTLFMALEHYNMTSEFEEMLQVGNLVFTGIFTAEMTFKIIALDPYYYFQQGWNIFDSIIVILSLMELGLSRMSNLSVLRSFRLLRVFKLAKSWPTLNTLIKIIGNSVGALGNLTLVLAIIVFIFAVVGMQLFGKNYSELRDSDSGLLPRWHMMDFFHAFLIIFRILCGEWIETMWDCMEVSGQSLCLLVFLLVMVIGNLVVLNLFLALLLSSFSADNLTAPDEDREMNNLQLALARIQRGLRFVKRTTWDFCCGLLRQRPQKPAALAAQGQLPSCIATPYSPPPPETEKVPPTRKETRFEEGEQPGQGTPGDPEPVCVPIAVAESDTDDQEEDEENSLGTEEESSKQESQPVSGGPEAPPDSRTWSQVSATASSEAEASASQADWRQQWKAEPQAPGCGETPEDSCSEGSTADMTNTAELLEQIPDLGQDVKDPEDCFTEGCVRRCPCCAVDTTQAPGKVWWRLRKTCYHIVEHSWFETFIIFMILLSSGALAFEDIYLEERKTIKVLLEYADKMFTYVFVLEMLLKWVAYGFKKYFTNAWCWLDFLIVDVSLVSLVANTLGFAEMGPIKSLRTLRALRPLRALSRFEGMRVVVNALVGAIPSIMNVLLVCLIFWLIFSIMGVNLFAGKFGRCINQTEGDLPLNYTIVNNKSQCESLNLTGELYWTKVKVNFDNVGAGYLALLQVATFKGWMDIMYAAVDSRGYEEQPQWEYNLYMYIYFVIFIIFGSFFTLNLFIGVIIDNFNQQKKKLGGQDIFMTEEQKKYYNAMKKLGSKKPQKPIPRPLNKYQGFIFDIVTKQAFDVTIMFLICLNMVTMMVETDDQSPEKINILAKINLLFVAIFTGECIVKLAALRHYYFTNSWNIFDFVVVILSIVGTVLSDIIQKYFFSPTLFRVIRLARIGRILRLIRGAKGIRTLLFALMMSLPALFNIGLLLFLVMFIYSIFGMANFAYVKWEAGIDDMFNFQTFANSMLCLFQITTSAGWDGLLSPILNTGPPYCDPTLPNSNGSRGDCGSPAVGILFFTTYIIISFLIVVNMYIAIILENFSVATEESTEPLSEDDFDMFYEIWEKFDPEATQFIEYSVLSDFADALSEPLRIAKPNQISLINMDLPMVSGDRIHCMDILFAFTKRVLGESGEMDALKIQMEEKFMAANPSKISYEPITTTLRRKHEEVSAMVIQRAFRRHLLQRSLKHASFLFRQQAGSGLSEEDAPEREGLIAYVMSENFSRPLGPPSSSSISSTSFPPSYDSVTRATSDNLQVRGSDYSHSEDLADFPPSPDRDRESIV

Compound	IC50 (NaV1.6 [1]) [µM]	IC50 (NaV1.6 [2]) [µM]	IC50 (NaV1.1 [3]) [µM]	IC50 (NaV1.1 [4]) [µM]	IC50 (NaV1.5) [µM]
3-chloro-4-(1-phenylethylamino)-N-(1,2,4-thiadiazol-5-yl)benzenesulfonamide [Example 142]	0.187	0.106	3.23	10	21.2
CCC(c1ccccc1)N(C)c1ccc(S(=O)(=O)Nc2nccs2)cc1Cl (stereo not drawn) [Example 90, 3-chloro-4-(methyl(1-phenylpropyl)amino)-N-(thiazol-2-yl)benzenesulfonamide]			4.05	2.01	
O=S(=O)(Nc1cscn1)c1c(F)cc(NCc2c(F)ccc(F)c2CN2CCC2)c(F)c1F [Example 215, 4-((2-(azetidin-1-ylmethyl)-3,6-difluorobenzyl)amino)-2,3,6-trifluoro-N-(thiazol-4-yl)benzenesulfonamide 2,2,2-trifluoroacetate]	0.021	0.003	10.3		21.5
Cc1c(NCc2c(F)cccc2CN2CCC2)cc(F)c(S(=O)(=O)Nc2cscn2)c1F [Example 304, 4-((2-(azetidin-1-ylmethyl)-6-fluorobenzyl)amino)-2,6-difluoro-3-methyl-N-(thiazol-4-yl)benzenesulfonamide 2,2,2-trifluoroacetate]	0.008	0.002	5.3		21.2
O=S(=O)(Nc1cccc(F)n1)c1c(F)cc(NCc2c(F)cccc2CN2CCC2)cc1F [Example 322, 4-((2-(azetidin-1-ylmethyl)-6-fluorobenzyl)amino)-2,6-difluoro-N-(6-fluoropyridin-2-yl)benzenesulfonamide formate]	0.114	0.047	7.75		30

More lines, in order of falling IC50 (NaV1.1 [3]), values ahead:

IC50 (NaV1.6 [1]) [µM]	IC50 (NaV1.6 [2]) [µM]	IC50 (NaV1.1 [3]) [µM]	IC50 (NaV1.1 [4]) [µM]	Compound	IC50 (NaV1.5) [µM]
3.82	1.04	30		O=S(=O)(Nc1ccccn1)c1c(F)cc(NCc2c(F)cccc2CN2CCC2)cc1F [Example 328, 4-((2-(azetidin-1-ylmethyl)-6-fluorobenzyl)amino)-2,6-difluoro-N-(pyridin-2-yl)benzenesulfonamide]	30
0.01	0.011	20.3		Cc1c(NCc2ccccc2CN2CCC2)cc(F)c(S(=O)(=O)Nc2ccncn2)c1F [Example 310, 4-((2-(azetidin-1-ylmethyl)benzyl)amino)-2,6-difluoro-3-methyl-N-(pyrimidin-4-yl)benzenesulfonamide 2,2,2-trifluoroacetate]	30
0.029	0.002	4.65		O=S(=O)(Nc1cscn1)c1cc(Cl)c(NCc2c(F)ccc3cn[nH]c23)cc1F [Example 334, 5-chloro-2-fluoro-4-(((6-fluoro-1H-indazol-7-yl)methyl)amino)-N-(thiazol-4-yl)benzenesulfonamide formate]	30
0.003	0.001	4.44		O=S(=O)(Nc1ncns1)c1c(F)cc(NCc2ccccc2CN2CCC2)c(Cl)c1F [Example 327, 4-((2-(azetidin-1-ylmethyl)benzyl)amino)-3-chloro-2,6-difluoro-N-(1,2,4-thiadiazol-5-yl)benzenesulfonamide formate]	30
0.328	0.982	3.91		Cc1cc(-c2cccc(F)c2CNc2cc(F)c(S(=O)(=O)Nc3cscn3)c(F)c2)ccn1 [Example 317, 2,6-difluoro-4-((2-fluoro-6-(2-methylpyridin-4-yl)benzyl)amino)-N-(thiazol-4-yl)benzenesulfonamide formate]	30
		2.41	10	CC[C@H](Nc1ccc(S(=O)(=O)Nc2nccs2)cc1)c1ccccc1 [Example 84, (S)-4-((1-phenylpropyl)amino)-N-(thiazol-2-yl)benzenesulfonamide]	
0.001	0.001	2		Cc1c(NCc2ccccc2CN2CCC2)cc(F)c(S(=O)(=O)Nc2ncns2)c1F [Example 330, 4-((2-(azetidin-1-ylmethyl)benzyl)amino)-2,6-difluoro-3-methyl-N-(1,2,4-thiadiazol-5-yl)benzenesulfonamide]	30
